Experimental findings from patent publication US20250179031A1, “PROTEASOME ENHANCERS AND USES THEREOF” (Board of Trustees of Michigan State University, priority 2022, published 2025) are described below.

The subject of the first experiment is T1, human 20S proteasome.
T1 construct: purchased Boston Biochem, Inc. (Cambridge, MA)
Description: Fluorogenic peptide degradation 20S proteasome activity assay, combination of CT-L, T-L and Casp-L substrates. Format: biochemical. As to conditions: 30 μM compound; mixture of the three substrates; 15 min pre-treatment at 37° C., 1 h read. The method, then: (§1) Activity assays were carried out in a 100 μL reaction volume. Different concentrations (40-1.25 μM) of test compounds (1 μL) were added to a black flat/clear bottom 96-well plate containing 2 nM of human constitutive 20S proteasome ([…]), in 50 mM Tris-HCl at pH 7.8, 100 mM NaCl and allowed to incubate for 15 min at 37° C. Fluorogenic substrates (5 μL) were then added and the enzymatic activity measured at 37° C. on a SpectraMax M5e spectrometer by measuring the change in fluorescence unit per minute for 1 hour at 380-460 nm. The fluorescence units for the vehicle control were set at a 100%, and the ratio of drug-treated sample set to that of vehicle control was used to calculate the fold change in enzymatic activity. The fluorogenic substrates used were one of the following: Suc-LLVY-AMC (CT-L activity, 20 μM), Z-LLE-AMC (Casp-L activity, 20 μM), Boc-LRR-AMC (Trp-L activity, 40 μM) or a combination of the three substrates each at 6.67 μM. Results were analysed and plotted using GraphPad Prism 7.
(§2) Screening of this library of dihydroquinazolines was performed in two stages. In the first stage, each compound was screened at three concentrations (3, 10 and 30 μM) to select lead agents. Secondly, lead agents were further analyzed using full concentration responses (6-point titration ranging from 1.25 μM-40 μM) for each of the three proteolytic activities of the 20S proteasome and a combination thereof. The proteolytic activity of the 20S proteasome can be monitored in vitro by measuring the cleavage of fluorogenic peptide substrates for the different catalytic sites as an increase in 7-amino-4-methycoumarin (AMC) fluorescence overtime. A combination of chymotrypsin-like (CT-L, Suc-LLVY-AMC), tryptic-like (T-L, Boc-LRR-AMC) and caspase-like (Casp-L, Z-LLE-AMC) peptide substrates were used in equal amounts to screen compounds for overall 20S activity.
Pure human 20S proteasome was pre-treated with 3, 10 or 30 μM of one of the analogues or DMSO (vehicle control) for 15 min at 37° C. To each sample was then added a mixture of the three substrates (13.3 μM each). The release of AMC was monitored as fluorescence overtime for 1 h and the resulting 20S activity changes were determined by comparing to the untreated 20S and calculating the fold-increase in activity for each analogue at a given concentration (Table 1, 30 μM).
(§3) After analyzing the results in Table 1, three of the most promising analogues were selected for further studies into their 20S activity. Compounds 10, 2 and 18 were selected to be carried forward based on their fold increase and the highest Max-Fold activities. […] These compounds were then tested to obtain a full concentration—response (FIG. 1) of their activities towards the 20S proteasome using each of the three substrates for the three catalytic sites individually and the combination of the three substrates. This was done to ensure that each of the selected compounds activate the 20S proteasome at all three catalytic sites, which is critical for effective IDP degradation, as these proteins are likely to contain multiple cleavage sites for each.
(§4) Using the data in FIG. 1, the concentration at which 20S activity was doubled (AC200) was calculated for each compound using each substrate and the combination of the three substrates (Table 2).
Regarding `c1ccc(CN2C(c3ccccc3)=Nc3ccccc3C2c2ccccc2)cc1` (stereo not shown) [Compound 1, 3-Benzyl-2,4-diphenyl-3,4-dihydroquinazoline], the “Fold increase over vehicle (30 μM), enhancement of 20S activity” value (“Fold increase over vehicle (30 μM)” below) came out at 4 fold. Still for that read-out and setting: the result for `COc1ccc2c(c1)N=C(c1ccccc1)N(Cc1ccccc1)C2c1ccccc1` (stereo not shown) [Compound 2] reads 7.9 fold; that for `Cc1ccc2c(c1)N=C(c1ccccc1)N(Cc1ccccc1)C2c1ccccc1` (stereo not shown) [Compound 3, 3-Benzyl-7-methyl-2,4-diphenyl-3,4-dihydroquinazoline], 8.1 fold; that for `CCCCCc1ccc2c(c1)N=C(c1ccccc1)N(Cc1ccccc1)C2c1ccccc1` (stereo not shown) [Compound 4, 3-Benzyl-7-pentyl-2,4-diphenyl-3,4-dihydroquinazoline], 2.8 fold.

For `COc1ccc2c(c1)N=C(C1CCCCC1)N(Cc1ccccc1)C2c1ccccc1` (stereo not shown) [Compound 5, 3-Benzyl-2-cyclohexyl-7-methoxy-4-phenyl-3,4-dihydroquinazoline], the “Fold increase over vehicle (30 μM)” value was 6.5 fold. Same read-out and setting: the result for `COc1ccc2c(c1)N=C(C1CC1)N(Cc1ccccc1)C2c1ccccc1` (stereo not shown) [Compound 6] reads 2.7 fold; that for `COc1ccc2c(c1)N=C(C(C)C)N(Cc1ccccc1)C2c1ccccc1` (stereo not shown) [Compound 7], 2.3 fold. On the same count and under the same terms, with `CCCCCC1=Nc2cc(OC)ccc2C(c2ccccc2)N1Cc1ccccc1` (stereo not shown) [Compound 8] the figure was 2.8 fold. As for `COc1ccc2c(c1)N=C(C)N(Cc1ccccc1)C2c1ccccc1` (stereo not shown) [Compound 9], the “Fold increase over vehicle (30 μM)” value is 1.8 fold. Same read-out and setting: the result for `COc1ccc2c(c1)N=C(c1ccccc1)N(c1ccccc1)C2c1ccccc1` (stereo not shown) [Compound 10] reads 9.5 fold.

Consider `COc1ccc2c(c1)N=C(c1ccccc1)N(c1ccccn1)C2c1ccccc1` (stereo not shown) [Compound 11, 7-Methoxy-2,4-diphenyl-3-(2-pyridyl)-3,4-dihydroquinazoline], for which the “Fold increase over vehicle (30 μM)” value is recorded as 6.9 fold.

Take `COc1ccc2c(c1)N=C(c1ccccc1)N(c1cccnc1)C2c1ccccc1` (stereo not shown) [Compound 12]: the “Fold increase over vehicle (30 μM)” value turned out to be 5.9 fold. The same measure, in the same setting: the result for `COc1ccc2c(c1)N=C(c1ccccc1)N(c1cccc3cccnc13)C2c1ccccc1` (stereo not shown) [Compound 13, 7-Methoxy-2,4-diphenyl-3-(8-quinolyl)-3,4-dihydroquinazoline] reads 5.3 fold; that for `COc1ccc2c(c1)N=C(c1ccccc1)N(Cc1ccccn1)C2c1ccccc1` (stereo not shown) [Compound 14, 7-Methoxy-2,4-diphenyl-3-[(2-pyridyl)methyl]-3,4-dihydroquinazoline], 2 fold. Same read-out and setting: with `COc1ccc2c(c1)N=C(c1ccccc1)N(CCc1ccccn1)C2c1ccccc1` (stereo not shown) [Compound 15, 7-Methoxy-2,4-diphenyl-3-[2-(2-pyridyl)ethyl]-3,4-dihydroquinazoline] the figure was 2.8 fold; with `COc1ccc2c(c1)N=C(c1ccccc1)N(C1CCCCC1)C2c1ccccc1` (stereo not shown) [Compound 16, 3-Cyclohexyl-7-methoxy-2,4-diphenyl-3,4-dihydroquinazoline], 6.7 fold; with `COc1ccc2c(c1)N=C(c1ccccc1)N(C1CCN(C)CC1)C2c1ccccc1` (stereo not shown) [Compound 17, 7-Methoxy-3-(1-methyl-4-piperidyl)-2,4-diphenyl-3,4-dihydroquinazoline], 1 fold. The same measure, in the same setting: with `COc1ccc2c(c1)N=C(c1ccccc1)N(CC1CCN(C)CC1)C2c1ccccc1` (stereo not shown) [Compound 19, 7-Methoxy-3-[(1-methyl-4-piperidyl)methyl]-2,4-diphenyl-3,4-dihydroquinazoline] the figure was 1.2 fold. Consider `COc1ccc2c(c1)N=C(c1ccccc1)N(CC1CCOCC1)C2c1ccccc1` (stereo not shown) [Compound 20, 7-Methoxy-2,4-diphenyl-3-[(tetrahydro-2H-pyran-4-yl)methyl]-3,4-dihydroquinazoline], for which the “Fold increase over vehicle (30 μM)” value turned out to be 1.6 fold. Same read-out and setting: with `COc1ccc2c(c1)N=C(c1ccccc1)N(CC1CCCCC1)C2c1ccccc1` (stereo not shown) [Compound 21, 3-(Cyclohexylmethyl)-7-methoxy-2,4-diphenyl-3,4-dihydroquinazoline] the figure was 8.2 fold. Turning to `COc1ccc2c(c1)N=C(c1ccccc1)N(CC#N)C2c1ccccc1` (stereo not shown) [Compound 22, (7-Methoxy-2,4-diphenyl-3,4-dihydroquinazolin-3-yl)acetonitrile], the “Fold increase over vehicle (30 μM)” value was 2.7 fold. Same read-out and setting: the result for `C=CCN1C(c2ccccc2)=Nc2cc(OC)ccc2C1c1ccccc1` (stereo not shown) [Compound 23] reads 2.3 fold; that for `CCCCCCN1C(c2ccccc2)=Nc2cc(OC)ccc2C1c1ccccc1` (stereo not shown) [Compound 24], 1.6 fold.

The experiment is the same for the next values; noted with them: combination of the three substrates.
In the case of `COc1ccc2c(c1)N=C(c1ccccc1)N(Cc1ccccc1)C2c1ccccc1` (stereo not shown) [Compound 2], the “concentration at which 20S activity was doubled in the combination (in words)” value is on record as “low μM concentrations”. For the compound `COc1ccc2c(c1)N=C(c1ccccc1)N(c1ccccc1)C2c1ccccc1` (stereo not shown) [Compound 10], the “concentration at which 20S activity was doubled in the combination (in words)” value was “low μM concentrations”.

Staying with this experiment, now noted: combination of the three substrates; 1.25-40 μM titration.
Take `COc1ccc2c(c1)N=C(c1ccccc1)N(Cc1ccccc1)C2c1ccccc1` (stereo not shown) [Compound 2]: the “AC200 (concentration at which 20S activity was doubled), Combo” value turned out to be 2.0 µM and the “Max Fold, Combo” value is reported as 10.1 fold. Consider `COc1ccc2c(c1)N=C(c1ccccc1)N(c1ccccc1)C2c1ccccc1` (stereo not shown) [Compound 10], for which the “Max Fold, Combo” value worked out at 11.1 fold. Same read-out and setting: with `COc1ccc2c(c1)N=C(c1ccccc1)N(C1CCN(C)CC1)C2c1ccccc1` (stereo not shown) [Compound 17, 7-Methoxy-3-(1-methyl-4-piperidyl)-2,4-diphenyl-3,4-dihydroquinazoline] the figure was 1.4 fold.

The same experiment, now with this note: screen of Table 1.
As for `COc1ccc2c(c1)N=C(c1ccccc1)N(C1CCN(C)CC1)C2c1ccccc1` (stereo not shown) [Compound 17, 7-Methoxy-3-(1-methyl-4-piperidyl)-2,4-diphenyl-3,4-dihydroquinazoline], the “activity towards the 20S (in words)” value was “no discemible activity towards the 20S”.

The subject of a further experiment is T2, human 20S proteasome, chymotrypsin-like (CT-L) site.
T2 construct: purchased Boston Biochem, Inc. (Cambridge, MA)
Description: Fluorogenic peptide degradation 20S proteasome activity assay, Suc-LLVY-AMC (CT-L activity). Format: biochemical. The conditions noted are these: Suc-LLVY-AMC substrate. The method, then:
as §1, §2, §3, §4
With `COc1ccc2c(c1)N=C(c1ccccc1)N(Cc1ccccc1)C2c1ccccc1` (stereo not shown) [Compound 2], the “AC200, CT-L” value was found to be 12.9 µM and the “Max Fold, CT-L” value is given as 5.6 fold. The like results for `COc1ccc2c(c1)N=C(c1ccccc1)N(c1ccccc1)C2c1ccccc1` (stereo not shown) [Compound 10] were, in that order, 8.1 µM and 6.7 fold. Consider `COc1ccc2c(c1)N=C(c1ccccc1)N(C1CCN(C)CC1)C2c1ccccc1` (stereo not shown) [Compound 17, 7-Methoxy-3-(1-methyl-4-piperidyl)-2,4-diphenyl-3,4-dihydroquinazoline], for which the “Max Fold, CT-L” value is 1.1 fold.

For another experiment, the system named is T3, human 20S proteasome, caspase-like (Casp-L) site.
T3 construct: purchased Boston Biochem, Inc. (Cambridge, MA)
Briefly: Fluorogenic peptide degradation 20S proteasome activity assay, Z-LLE-AMC (Casp-L activity). The conditions noted are these: Z-LLE-AMC substrate. Format: biochemical. The method, then:
as §1, §2, §3, §4
With `COc1ccc2c(c1)N=C(c1ccccc1)N(Cc1ccccc1)C2c1ccccc1` (stereo not shown) [Compound 2], the “AC200, Casp-L” value came to 5.6 µM and the “Max Fold, Casp-L” value was determined as 13.4 fold. The like results for `COc1ccc2c(c1)N=C(c1ccccc1)N(c1ccccc1)C2c1ccccc1` (stereo not shown) [Compound 10] were, in that order, 5.8 µM and 15.3 fold. Regarding `COc1ccc2c(c1)N=C(c1ccccc1)N(C1CCN(C)CC1)C2c1ccccc1` (stereo not shown) [Compound 17, 7-Methoxy-3-(1-methyl-4-piperidyl)-2,4-diphenyl-3,4-dihydroquinazoline], the “Max Fold, Casp-L” value is 0.8 fold.

In another experiment the test system is T4, human 20S proteasome, tryptic-like (T-L) site.
T4 construct: purchased Boston Biochem, Inc. (Cambridge, MA)
Briefly: Fluorogenic peptide degradation 20S proteasome activity assay, Boc-LRR-AMC (T-L activity). Format: biochemical. As to conditions: Boc-LRR-AMC substrate. The method, then: as §1, §2, §3, §4
Regarding `COc1ccc2c(c1)N=C(c1ccccc1)N(Cc1ccccc1)C2c1ccccc1` (stereo not shown) [Compound 2], the “AC200, T-L” value is 5.0 µM and the “Max Fold, T-L” value was determined as 11.7 fold. On to `COc1ccc2c(c1)N=C(c1ccccc1)N(c1ccccc1)C2c1ccccc1` (stereo not shown) [Compound 10], for which the “AC200, T-L” value was found to be 2.5 µM and the “Max Fold, T-L” value is reported as 15.0 fold. Regarding `COc1ccc2c(c1)N=C(c1ccccc1)N(C1CCN(C)CC1)C2c1ccccc1` (stereo not shown) [Compound 17, 7-Methoxy-3-(1-methyl-4-piperidyl)-2,4-diphenyl-3,4-dihydroquinazoline], the “Max Fold, T-L” value came to 1.0 fold.

The next experiment has as its system T5, human 20S proteasome (α-synuclein substrate).
T5 construct: purchased Boston Biochem, Inc. (Cambridge, MA)
Briefly: In vitro purified α-synuclein degradation assay (silver stain). Format: biochemical. The conditions noted are these: pure human α-synuclein, 4 h at 37° C., silver stain quantified. The method, then:
Representative silver stain of these alpha-synuclein digestions and quantification of three trials. 20S proteasome subunits were used as a loading control in the quantification (right). […] Error bars denote standard deviation. Ordinary one-way ANOVA statistical analysis was used to determine statistical significance (ns=not significant, *p<0.05, **p<0.01, […], and ****p<0.00001).
In vitro purified α-synuclein degradation assay. Digestion of α-synuclein was carried out in a 50 μL reaction volume made of 50 mM Tris and 100 mM NaCl at pH 7.8; 0.5 μM purified α-synuclein and 6.7 nM purified human 20S proteasome. Briefly, 20S proteasome was diluted to 7.58 nM in the reaction buffer. Test compounds or vehicle (1 μL of 50× stock or DMSO) were added to 44 μL of 7.58 nM 20S and incubated at 37° C. for 20 min. 5 μL of 5 μM α-synuclein substrate was then added to the reaction mixture and incubated at 37° C. for 4 hours. The reactions were quenched with concentrated sodium dodecyl sulfate (SDS) loading buffer. After boiling for 10 min, samples were resolved on a 4-20% Tris-glycine SDS-PAGE gel. The gels were then stained using a Pierce Silver Stain Kit (Thermo Scientific, Rockford IL) and the provided procedure. Silver stained gels were then quantified using ImageJ. […]
Turning to `CC(C)C[C@H](NC(=O)[C@H](Cc1ccccc1)NC(=O)c1cnccn1)B(O)O` [bortezomib, reference compound], the “20S-mediated degradation of α-synuclein (in words)” value is given as “prevented α-synuclein degradation”.
